Measurements: patent US6706664B1, “Benzoxazole compounds, process for the preparation thereof and herbicides” (UBE Industries, Ltd., priority 1999, dated 2004)

Assays:
Design in all cases: key: 0: normal development; 1: Less damaged; 2: Slightly damaged; 3: Moderately damaged; 4: Severely damaged; 5: All killed
corn [1] = experiment: Soil treatment test for upland field; assay type: in vivo; conditions: 500 g/ha, glass house 25° C., 3 weeks
How it was run: (§1)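 Damage rated on a 0–5 scale (0 normal development, 5 all killed) after 3 weeks in a glasshouse at about 25 °C. Compounds applied as a water-diluted wettable powder (0.05% surfactant) sprayed at 500 g/ha onto soil surface over freshly sown seeds in alluvial Ube soil.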

cotton [2] = experiment: Soil treatment test for upland field; assay type: in vivo; conditions: 500 g/ha, glass house 25° C., 3 weeks
How it was run: as §1

solgum [3] = experiment: Soil treatment test for upland field; assay type: in vivo; conditions: 500 g/ha, glass house 25° C., 3 weeks
How it was run: as §1

soybean [4] = experiment: Soil treatment test for upland field; assay type: in vivo; conditions: 500 g/ha, glass house 25° C., 3 weeks
How it was run: as §1

sugar beat [5] = experiment: Soil treatment test for upland field; assay type: in vivo; conditions: 500 g/ha, glass house 25° C., 3 weeks
How it was run: as §1

wheat [6] = experiment: Soil treatment test for upland field; assay type: in vivo; conditions: 500 g/ha, glass house 25° C., 3 weeks
How it was run: as §1

Large crabgrass [7] = experiment: Soil treatment test for upland field; assay type: in vivo, Digitaria adscendens; conditions: 500 g/ha, glass house 25° C., 3 weeks
How it was run: as §1

green foxtail [8] = experiment: Soil treatment test for upland field; assay type: in vivo, Setaria viridis; conditions: 500 g/ha, glass house 25° C., 3 weeks
How it was run: as §1

blackgrass = experiment: Soil treatment test for upland field; assay type: in vivo, Alopecurus aegualis; conditions: 500 g/ha, glass house 25° C., 3 weeks
How it was run: as §1

annual bluegrass = experiment: Soil treatment test for upland field; assay type: in vivo, Poa annua; conditions: 500 g/ha, glass house 25° C., 3 weeks
How it was run: as §1

common lambsquartes [9] = experiment: Soil treatment test for upland field; assay type: in vivo, Chenopodium album; conditions: 500 g/ha, glass house 25° C., 3 weeks
How it was run: as §1

livid amaranth [10] = experiment: Soil treatment test for upland field; assay type: in vivo, Amaranthus lividus; conditions: 500 g/ha, glass house 25° C., 3 weeks
How it was run: as §1

velvetleaf [11] = experiment: Soil treatment test for upland field; assay type: in vivo, Abutilon theophrasti; conditions: 500 g/ha, glass house 25° C., 3 weeks
How it was run: as §1

corn [12] = experiment: Foliar spread test for upland field; assay type: in vivo; conditions: foliar spray 500 ppm, 3 weeks, rank vs non-treated
How it was run: (§2)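 Crops and weeds grown about 2 weeks in volcanic ash soil in a glasshouse, then sprayed with wettable-powder formulations diluted to 500 ppm in water with 0.5% surfactant. After 3 weeks at 25 °C, injury scored visually 0 (normal) to 5 (all killed).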

solgum [13] = experiment: Foliar spread test for upland field; assay type: in vivo; conditions: foliar spray 500 ppm, 3 weeks, rank vs non-treated
How it was run: as §2

soybean [14] = experiment: Foliar spread test for upland field; assay type: in vivo; conditions: foliar spray 500 ppm, 3 weeks, rank vs non-treated
How it was run: as §2

sugar beat [15] = experiment: Foliar spread test for upland field; assay type: in vivo; conditions: foliar spray 500 ppm, 3 weeks, rank vs non-treated
How it was run: as §2

wheat [16] = experiment: Foliar spread test for upland field; assay type: in vivo; conditions: foliar spray 500 ppm, 3 weeks, rank vs non-treated
How it was run: as §2

green foxtail [17] = experiment: Foliar spread test for upland field; assay type: in vivo, Setaria viridis; conditions: foliar spray 500 ppm, 3 weeks, rank vs non-treated
Description: (§3) (0: normal development, 1: Less damaged, 2: Slightly damaged, 3: Moderately damaged, 4: Severely damaged, 5: All killed).
(§4) Wagner pots, each having an area of 1/5000 are, were packed with volcanic ash soil and then each seed of corn, soybean, cotton, wheat, solgum, sugar beat, Large crabgrass, barnyardgrass, green foxtail, blackgrass, annual bluegrass, common lambsquartes, livid amaranth, velvetleaf and morning glory was planted, covered with soil and grown in a glass house at an average temperature of […] for about 2 weeks.
(§5) Each wettable powder of the desired compounds (I) shown in Table 1 prepared in accordance with Example 2 was diluted to 500 ppm with water containing a surfactant (0.5%) and then uniformly sprayed on the above respective plants.
(§6) After these plants were controlled in a glass house at an average temperature of 25° C. for 3 weeks, the herbicidal effects thereof were investigated.
(§7) The herbicidal effects were evaluated according to the evaluation method described in the above (1).

common lambsquartes [18] = experiment: Foliar spread test for upland field; assay type: in vivo, Chenopodium album; conditions: foliar spray 500 ppm, 3 weeks, rank vs non-treated
Description: as §3, §4, §5, §6, §7

livid amaranth [19] = experiment: Foliar spread test for upland field; assay type: in vivo, Amaranthus lividus; conditions: foliar spray 500 ppm, 3 weeks, rank vs non-treated
How it was run: (§8)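 Two-week-old glasshouse seedlings on volcanic ash soil were treated by foliar spray at 500 ppm, with 0.5% surfactant in the diluent. Effects were graded visually after three weeks, from 0 for no injury to 5 for complete kill.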

velvetleaf [20] = experiment: Foliar spread test for upland field; assay type: in vivo, Abutilon theophrasti; conditions: foliar spray 500 ppm, 3 weeks, rank vs non-treated
How it was run: as §8

barnyardgrass [21] = experiment: Soil treatment test for upland field; assay type: in vivo, Echinochloa crusgalli; conditions: 500 g/ha, glass house 25° C., 3 weeks
How it was run: as §1

morning glory = experiment: Foliar spread test for upland field; assay type: in vivo, Ipomoea spps.; conditions: foliar spray 500 ppm, 3 weeks, rank vs non-treated
Description: as §3, §4, §5, §6, §7

barnyardgrass [22] = experiment: Herbicidal test for paddy field; assay type: in vivo, Echinochloa crusgalli; conditions: paddy field pot, 500 g/ha dropwise at 1.5 leaf stage of barnyardgrass, 3 weeks, rank vs non-treated
Method: Wagner pots, each having an area of 1/5000 are, were packed with Ube soil (alluvial soil) and planted with seeds or tubers of young rice plant, barnyardgrass, bulrush, flat sedge and monochoria. Then, the pots were filled with water to a depth of 3 cm.
Each wettable powder of the desired compounds (I) shown in Table 1 prepared in accordance with Example 2 was diluted with water containing a surfactant (0.05%) and subjected to dropwise addition treatment by using pipet so that an effective concentration of the compound (I) in each herbicide became 500 g/ha at 1.5 leaf stage of barnyardgrass.
These plants were controlled in a glass house at an average temperature of 25° C. for 3 weeks, and then herbicidal effects thereof were investigated.
The herbicidal effects are evaluated according to the following 6 ranks as compared with non-treated district.
as §3

monochoria = experiment: Herbicidal test for paddy field; assay type: in vivo, Monochoria vaginalis; conditions: paddy field pot, 500 g/ha dropwise at 1.5 leaf stage of barnyardgrass, 3 weeks, rank vs non-treated
How it was run: (§9)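 Under flooded conditions (3 cm water over Ube soil), each compound was delivered by pipet as a diluted wettable powder (0.05% surfactant) at 500 g/ha, timed to 1.5-leaf barnyardgrass. Plants stayed 3 weeks in a 25° C glasshouse before injury was graded from 0 (normal) to 5 (all killed).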

cotton [23] = experiment: Foliar spread test for upland field; assay type: in vivo; conditions: foliar spray 500 ppm, 3 weeks, rank vs non-treated
How it was run: as §2

Large crabgrass [24] = experiment: Foliar spread test for upland field; assay type: in vivo, Digitaria adscendens; conditions: foliar spray 500 ppm, 3 weeks, rank vs non-treated
Description: as §3, §4, §5, §6, §7

young rice plant = experiment: Herbicidal test for paddy field; assay type: in vivo; conditions: paddy field pot, 500 g/ha dropwise at 1.5 leaf stage of barnyardgrass, 3 weeks, rank vs non-treated
How it was run: as §9

bulrush = experiment: Herbicidal test for paddy field; assay type: in vivo, Scrips juncoides; conditions: paddy field pot, 500 g/ha dropwise at 1.5 leaf stage of barnyardgrass, 3 weeks, rank vs non-treated
How it was run: as §9

Row | Structure (SMILES) | Effects Corn (corn [1]) | Effects Cotton (cotton [2]) | Effects Solgum (solgum [3]) | Effects Soybean (soybean [4]) | Effects Sugar beat (sugar beat [5]) | Effects Wheat (wheat [6]) | Effects Large crabgrass (Large crabgrass [7]) | Effects Green foxtail (green foxtail [8]) | Effects Annual bluegrass (annual bluegrass) | Effects Common lambsquarters (common lambsquartes [9]) | Effects Livid amaranth (livid amaranth [10]) | Effects Velvetleaf (velvetleaf [11]) | Effects Corn (corn [12]) | Effects Solgum (solgum [13]) | Effects Sugar beat (sugar beat [15]) | Effects Wheat (wheat [16]) | Effects Green foxtail (green foxtail [17]) | Effects Common lambsquarters (common lambsquartes [18]) | Effects Livid amaranth (livid amaranth [19]) | Effects Velvetleaf (velvetleaf [20]) | also measured
1 | CCCC(Oc1ccc(F)c(C(F)(F)F)c1)c1nc2cc(C#N)c(C#N)cc2o1 (centres unmarked) [Compound 318] | 0 | 0 | 0 | 0 | 5 | 0 | 2 | 4 | 4 | 5 | 5 | 5 | 1 | 1 | 5 | 1 | 5 | 3 | 5 | 2 | Effects Blackgrass (blackgrass): 2; Effects Soybean (soybean [14]): 2
2 | CCCC(Oc1ccc(F)c(C(F)(F)F)c1)c1nc2cc(S(C)(=O)=O)c(C)cc2o1 (centres unmarked) [Compound 488] | 0 | 1 | 0 | 0 | 5 | 0 | 5 | 5 | 5 | 4 | 5 | 5 | 1 | 1 | 5 | 1 |  | 3 | 5 | 3 | Effects Barnyardgrass (barnyardgrass [21]): 2; Effects Soybean (soybean [14]): 2; Effects Morning glory (morning glory): 2
3 | CCC(Oc1ccc(F)c(C(F)(F)F)c1)c1nc2cc(F)c(Cl)cc2o1 (centres unmarked) [Compound 493] | 2 | 1 | 2 | 2 | 5 | 2 | 5 | 5 | 5 | 4 | 5 | 5 | 2 | 1 | 5 | 1 | 5 | 5 | 5 | 2 | Effect Barnyardgrass (barnyardgrass [22]): 5; Effect Monochoria (monochoria): 5; Effects Barnyardgrass (barnyardgrass [21]): 4; Effects Blackgrass (blackgrass): 4; Effects Cotton (cotton [23]): 2; Effects Large crabgrass (Large crabgrass [24]): 2
4 | CCC(Oc1cccc(C#N)c1)c1nc2cc(S(C)(=O)=O)c(C)cc2o1 (centres unmarked) [Compound 491] |  |  |  |  |  |  |  |  |  |  |  |  | 1 | 1 | 4 | 1 | 2 | 5 | 4 | 3 | Effect Young rice plant (young rice plant): 0; Effect Bulrush (bulrush): 3; Effect Monochoria (monochoria): 5; Effects Cotton (cotton [23]): 2; Effects Morning glory (morning glory): 3
